# System: Enterococcus faecalis
# Test: Antibacterial activity against Enterococcus faecalis by broth dilution method
# Format: functional
row,SMILES,MIC [µg/mL]
1,C=C[C@]1(C)C[C@@H](OC(=O)CSC(C)(C)CNC(=O)Cn2cc(CNc3ccc(CCCCCC)cc3)nn2)[C@]2(C)[C@H](C)CC[C@]3(CCC(=O)[C@H]32)[C@@H](C)[C@@H]1O,> 64
2,C=C[C@]1(C)C[C@@H](OC(=O)CSC(C)(C)CNC(=O)Cn2cc(CNc3ccc(CCC)cc3)nn2)[C@]2(C)[C@H](C)CC[C@]3(CCC(=O)[C@H]32)[C@@H](C)[C@@H]1O,> 64
3,C=C[C@]1(C)C[C@@H](OC(=O)CSC(C)(C)CNC(=O)Cn2cc(COc3ccc([N+](=O)[O-])cc3)nn2)[C@]2(C)[C@H](C)CC[C@]3(CCC(=O)[C@H]32)[C@@H](C)[C@@H]1O,64
4,C=C[C@]1(C)C[C@@H](OC(=O)CSC(C)(C)CNC(=O)Cn2cc(CC3CC3)nn2)[C@]2(C)[C@H](C)CC[C@]3(CCC(=O)[C@H]32)[C@@H](C)[C@@H]1O,64
5,C=C[C@]1(C)C[C@@H](OC(=O)CSCCN(CC)CC)[C@]2(C)[C@H](C)CC[C@]3(CCC(=O)[C@H]32)[C@@H](C)[C@@H]1O [TIAMULIN],32
6,C=C[C@]1(C)C[C@@H](OC(=O)CSC(C)(C)CNC(=O)Cn2cc(Cc3cccnc3)nn2)[C@]2(C)[C@H](C)CC[C@]3(CCC(=O)[C@H]32)[C@@H](C)[C@@H]1O,0.062
7,C=C[C@]1(C)C[C@@H](OC(=O)CSC(C)(C)CNC(=O)Cn2cc(CNc3ccc(C)cc3)nn2)[C@]2(C)[C@H](C)CC[C@]3(CCC(=O)[C@H]32)[C@@H](C)[C@@H]1O,64
8,C=C[C@]1(C)C[C@@H](OC(=O)CSC(C)(C)CNC(=O)Cn2cc(COc3ccccc3)nn2)[C@]2(C)[C@H](C)CC[C@]3(CCC(=O)[C@H]32)[C@@H](C)[C@@H]1O,16
9,C=C[C@]1(C)C[C@@H](OC(=O)CSC(C)(C)CNC(=O)Cn2cc(CNc3ccc(OC)cc3)nn2)[C@]2(C)[C@H](C)CC[C@]3(CCC(=O)[C@H]32)[C@@H](C)[C@@H]1O,64

# System: Staphylococcus aureus
# Test: Antibacterial activity against Staphylococcus aureus by broth dilution method
# Format: functional
row,SMILES,MIC [µg/mL]
1,C=C[C@]1(C)C[C@@H](OC(=O)CSC(C)(C)CNC(=O)Cn2cc(CNc3ccc(CCCCCC)cc3)nn2)[C@]2(C)[C@H](C)CC[C@]3(CCC(=O)[C@H]32)[C@@H](C)[C@@H]1O,32
2,C=C[C@]1(C)C[C@@H](OC(=O)CSC(C)(C)CNC(=O)Cn2cc(CNc3ccc(CCC)cc3)nn2)[C@]2(C)[C@H](C)CC[C@]3(CCC(=O)[C@H]32)[C@@H](C)[C@@H]1O,32
3,C=C[C@]1(C)C[C@@H](OC(=O)CSC(C)(C)CNC(=O)Cn2cc(COc3ccc([N+](=O)[O-])cc3)nn2)[C@]2(C)[C@H](C)CC[C@]3(CCC(=O)[C@H]32)[C@@H](C)[C@@H]1O,4
4,C=C[C@]1(C)C[C@@H](OC(=O)CSC(C)(C)CNC(=O)Cn2cc(CC3CC3)nn2)[C@]2(C)[C@H](C)CC[C@]3(CCC(=O)[C@H]32)[C@@H](C)[C@@H]1O,4
5,C=C[C@]1(C)C[C@@H](OC(=O)CSCCN(CC)CC)[C@]2(C)[C@H](C)CC[C@]3(CCC(=O)[C@H]32)[C@@H](C)[C@@H]1O [TIAMULIN],4
6,C=C[C@]1(C)C[C@@H](OC(=O)CSC(C)(C)CNC(=O)Cn2cc(Cc3cccnc3)nn2)[C@]2(C)[C@H](C)CC[C@]3(CCC(=O)[C@H]32)[C@@H](C)[C@@H]1O,16
7,C=C[C@]1(C)C[C@@H](OC(=O)CSC(C)(C)CNC(=O)Cn2cc(CNc3ccc(C)cc3)nn2)[C@]2(C)[C@H](C)CC[C@]3(CCC(=O)[C@H]32)[C@@H](C)[C@@H]1O,16
8,C=C[C@]1(C)C[C@@H](OC(=O)CSC(C)(C)CNC(=O)Cn2cc(COc3ccccc3)nn2)[C@]2(C)[C@H](C)CC[C@]3(CCC(=O)[C@H]32)[C@@H](C)[C@@H]1O,64
9,C=C[C@]1(C)C[C@@H](OC(=O)CSC(C)(C)CNC(=O)Cn2cc(CNc3ccc(OC)cc3)nn2)[C@]2(C)[C@H](C)CC[C@]3(CCC(=O)[C@H]32)[C@@H](C)[C@@H]1O,4

# System: Staphylococcus aureus
# Test: Antibacterial activity against methicillin-resistant Staphylococcus aureus by broth dilution method
# Format: functional
row,SMILES,MIC [µg/mL]
1,C=C[C@]1(C)C[C@@H](OC(=O)CSC(C)(C)CNC(=O)Cn2cc(CNc3ccc(CCCCCC)cc3)nn2)[C@]2(C)[C@H](C)CC[C@]3(CCC(=O)[C@H]32)[C@@H](C)[C@@H]1O,8
2,C=C[C@]1(C)C[C@@H](OC(=O)CSC(C)(C)CNC(=O)Cn2cc(CNc3ccc(CCC)cc3)nn2)[C@]2(C)[C@H](C)CC[C@]3(CCC(=O)[C@H]32)[C@@H](C)[C@@H]1O,4
3,C=C[C@]1(C)C[C@@H](OC(=O)CSC(C)(C)CNC(=O)Cn2cc(COc3ccc([N+](=O)[O-])cc3)nn2)[C@]2(C)[C@H](C)CC[C@]3(CCC(=O)[C@H]32)[C@@H](C)[C@@H]1O,4
4,C=C[C@]1(C)C[C@@H](OC(=O)CSC(C)(C)CNC(=O)Cn2cc(CC3CC3)nn2)[C@]2(C)[C@H](C)CC[C@]3(CCC(=O)[C@H]32)[C@@H](C)[C@@H]1O,8
5,C=C[C@]1(C)C[C@@H](OC(=O)CSCCN(CC)CC)[C@]2(C)[C@H](C)CC[C@]3(CCC(=O)[C@H]32)[C@@H](C)[C@@H]1O [TIAMULIN],0.25
6,C=C[C@]1(C)C[C@@H](OC(=O)CSC(C)(C)CNC(=O)Cn2cc(Cc3cccnc3)nn2)[C@]2(C)[C@H](C)CC[C@]3(CCC(=O)[C@H]32)[C@@H](C)[C@@H]1O,2
7,C=C[C@]1(C)C[C@@H](OC(=O)CSC(C)(C)CNC(=O)Cn2cc(CNc3ccc(C)cc3)nn2)[C@]2(C)[C@H](C)CC[C@]3(CCC(=O)[C@H]32)[C@@H](C)[C@@H]1O,16
8,C=C[C@]1(C)C[C@@H](OC(=O)CSC(C)(C)CNC(=O)Cn2cc(COc3ccccc3)nn2)[C@]2(C)[C@H](C)CC[C@]3(CCC(=O)[C@H]32)[C@@H](C)[C@@H]1O,8
9,C=C[C@]1(C)C[C@@H](OC(=O)CSC(C)(C)CNC(=O)Cn2cc(CNc3ccc(OC)cc3)nn2)[C@]2(C)[C@H](C)CC[C@]3(CCC(=O)[C@H]32)[C@@H](C)[C@@H]1O,4

# System: Escherichia coli
# Test: Antibacterial activity against Escherichia coli by broth dilution method
# Format: functional
row,SMILES,MIC [µg/mL]
1,C=C[C@]1(C)C[C@@H](OC(=O)CSC(C)(C)CNC(=O)Cn2cc(CNc3ccc(CCCCCC)cc3)nn2)[C@]2(C)[C@H](C)CC[C@]3(CCC(=O)[C@H]32)[C@@H](C)[C@@H]1O,> 64
2,C=C[C@]1(C)C[C@@H](OC(=O)CSC(C)(C)CNC(=O)Cn2cc(CNc3ccc(CCC)cc3)nn2)[C@]2(C)[C@H](C)CC[C@]3(CCC(=O)[C@H]32)[C@@H](C)[C@@H]1O,> 64
3,C=C[C@]1(C)C[C@@H](OC(=O)CSC(C)(C)CNC(=O)Cn2cc(COc3ccc([N+](=O)[O-])cc3)nn2)[C@]2(C)[C@H](C)CC[C@]3(CCC(=O)[C@H]32)[C@@H](C)[C@@H]1O,> 64
4,C=C[C@]1(C)C[C@@H](OC(=O)CSC(C)(C)CNC(=O)Cn2cc(CC3CC3)nn2)[C@]2(C)[C@H](C)CC[C@]3(CCC(=O)[C@H]32)[C@@H](C)[C@@H]1O,> 64
5,C=C[C@]1(C)C[C@@H](OC(=O)CSCCN(CC)CC)[C@]2(C)[C@H](C)CC[C@]3(CCC(=O)[C@H]32)[C@@H](C)[C@@H]1O [TIAMULIN],> 64
6,C=C[C@]1(C)C[C@@H](OC(=O)CSC(C)(C)CNC(=O)Cn2cc(Cc3cccnc3)nn2)[C@]2(C)[C@H](C)CC[C@]3(CCC(=O)[C@H]32)[C@@H](C)[C@@H]1O,> 64
7,C=C[C@]1(C)C[C@@H](OC(=O)CSC(C)(C)CNC(=O)Cn2cc(CNc3ccc(C)cc3)nn2)[C@]2(C)[C@H](C)CC[C@]3(CCC(=O)[C@H]32)[C@@H](C)[C@@H]1O,> 64
8,C=C[C@]1(C)C[C@@H](OC(=O)CSC(C)(C)CNC(=O)Cn2cc(COc3ccccc3)nn2)[C@]2(C)[C@H](C)CC[C@]3(CCC(=O)[C@H]32)[C@@H](C)[C@@H]1O,> 64
9,C=C[C@]1(C)C[C@@H](OC(=O)CSC(C)(C)CNC(=O)Cn2cc(CNc3ccc(OC)cc3)nn2)[C@]2(C)[C@H](C)CC[C@]3(CCC(=O)[C@H]32)[C@@H](C)[C@@H]1O,> 64

# System: Staphylococcus epidermidis
# Test: Antibacterial activity against Staphylococcus epidermidis by broth dilution method
# Format: functional
row,SMILES,MIC [µg/mL]
1,C=C[C@]1(C)C[C@@H](OC(=O)CSC(C)(C)CNC(=O)Cn2cc(CNc3ccc(CCCCCC)cc3)nn2)[C@]2(C)[C@H](C)CC[C@]3(CCC(=O)[C@H]32)[C@@H](C)[C@@H]1O,2
2,C=C[C@]1(C)C[C@@H](OC(=O)CSC(C)(C)CNC(=O)Cn2cc(CNc3ccc(CCC)cc3)nn2)[C@]2(C)[C@H](C)CC[C@]3(CCC(=O)[C@H]32)[C@@H](C)[C@@H]1O,16
3,C=C[C@]1(C)C[C@@H](OC(=O)CSC(C)(C)CNC(=O)Cn2cc(COc3ccc([N+](=O)[O-])cc3)nn2)[C@]2(C)[C@H](C)CC[C@]3(CCC(=O)[C@H]32)[C@@H](C)[C@@H]1O,1
4,C=C[C@]1(C)C[C@@H](OC(=O)CSC(C)(C)CNC(=O)Cn2cc(CC3CC3)nn2)[C@]2(C)[C@H](C)CC[C@]3(CCC(=O)[C@H]32)[C@@H](C)[C@@H]1O,0.5
5,C=C[C@]1(C)C[C@@H](OC(=O)CSCCN(CC)CC)[C@]2(C)[C@H](C)CC[C@]3(CCC(=O)[C@H]32)[C@@H](C)[C@@H]1O [TIAMULIN],0.5
6,C=C[C@]1(C)C[C@@H](OC(=O)CSC(C)(C)CNC(=O)Cn2cc(Cc3cccnc3)nn2)[C@]2(C)[C@H](C)CC[C@]3(CCC(=O)[C@H]32)[C@@H](C)[C@@H]1O,0.25
7,C=C[C@]1(C)C[C@@H](OC(=O)CSC(C)(C)CNC(=O)Cn2cc(CNc3ccc(C)cc3)nn2)[C@]2(C)[C@H](C)CC[C@]3(CCC(=O)[C@H]32)[C@@H](C)[C@@H]1O,2
8,C=C[C@]1(C)C[C@@H](OC(=O)CSC(C)(C)CNC(=O)Cn2cc(COc3ccccc3)nn2)[C@]2(C)[C@H](C)CC[C@]3(CCC(=O)[C@H]32)[C@@H](C)[C@@H]1O,8
9,C=C[C@]1(C)C[C@@H](OC(=O)CSC(C)(C)CNC(=O)Cn2cc(CNc3ccc(OC)cc3)nn2)[C@]2(C)[C@H](C)CC[C@]3(CCC(=O)[C@H]32)[C@@H](C)[C@@H]1O,2
